Data taken from patent US20090118332A1, “Therapeutic Agents - 551” (AstraZeneca AB, priority 2006, published 2009).

The molecules below were run against T1, human Fatty Acid Synthase (Homo sapiens, UniProt P49327) (assay: Human FAS enzyme assay (decrease in NADPH fluorescence)). Conditions: % inhibition at a concentration of 100 μmolar.
T1 construct: made in house
Type: biochemical
Experimental: Human and Rat FAS Enzyme Assay.
Fatty acid synthase is an enzyme complex that harbours seven enzymatic activities catalysing the reductive synthesis of long chain fatty acids from acetyl CoA and malonyl CoA to palmitate. When acetyl CoA and malonyl CoA are forming palmitate NADPH is consumed forming NADP. Since NADPH is fluorescent but not NADP the reaction can be measured by analysing the decrease in fluorescence.
Compounds were added to a black 384 well plate (Matrix) in a volume of 5 μl consisting of 20% DMSO and 80% Tris buffer pH 7.5, at a top concentration of 1 mM. NADPH, 30 μl of 166.6 μM, formulated in assay buffer (0.1M Tris ph7.5, 0.1 mM EDTA, 1 mM glutathione, 0.05% BSA), was then added to all of the wells of the plate. Fatty acid synthase Human or rat enzyme (0.4 μg, produced in house), dissolved in 20 mM Tris/HCl pH 7.5, 5 mM BOG, 1 mM TCEP, 10% glycerol, 1 mM EDTA, 150 mM NaCl, was then added to the plate in a volume of 10 μl. Enzyme was added to all but the last two columns of the plate, to which, 10 μl of assay buffer was added (0.1M Tris ph7.5, 0.1 mM EDTA, 1 mM glutathione, 0.05% BSA) to provide a no enzyme assay control. Following a 15-minute incubation period, at room temperature, the plates were read on an Envision plate reader using 340 nm excitation and 460 nm emission filters. This served as a time zero background read. Substrates (an equal mix of both malonyl and acetyl CoA) were then added to the plates in a total volume of 5 μl. The concentrations of malonyl and acetyl CoA in the mixture were 500 μM and 150 μM respectively. Both were prepared as 10 mM stock solutions in distilled water and were subsequently diluted to working concentrations in assay buffer. Plates were then incubated for a further 60 minutes, at room temperature, before being read again on the Envision reader using the same parameters as previously used. The data was analysed by subtracting the background time zero data from that generated following the final 60 minute incubate and the percent inhibition compared to the maximum and minimum assay controls was determined. Sigmoid curves were fitted using Origin 7.5 Client software and IC50 values were determined.

T1 sequence (P49327 whole entry): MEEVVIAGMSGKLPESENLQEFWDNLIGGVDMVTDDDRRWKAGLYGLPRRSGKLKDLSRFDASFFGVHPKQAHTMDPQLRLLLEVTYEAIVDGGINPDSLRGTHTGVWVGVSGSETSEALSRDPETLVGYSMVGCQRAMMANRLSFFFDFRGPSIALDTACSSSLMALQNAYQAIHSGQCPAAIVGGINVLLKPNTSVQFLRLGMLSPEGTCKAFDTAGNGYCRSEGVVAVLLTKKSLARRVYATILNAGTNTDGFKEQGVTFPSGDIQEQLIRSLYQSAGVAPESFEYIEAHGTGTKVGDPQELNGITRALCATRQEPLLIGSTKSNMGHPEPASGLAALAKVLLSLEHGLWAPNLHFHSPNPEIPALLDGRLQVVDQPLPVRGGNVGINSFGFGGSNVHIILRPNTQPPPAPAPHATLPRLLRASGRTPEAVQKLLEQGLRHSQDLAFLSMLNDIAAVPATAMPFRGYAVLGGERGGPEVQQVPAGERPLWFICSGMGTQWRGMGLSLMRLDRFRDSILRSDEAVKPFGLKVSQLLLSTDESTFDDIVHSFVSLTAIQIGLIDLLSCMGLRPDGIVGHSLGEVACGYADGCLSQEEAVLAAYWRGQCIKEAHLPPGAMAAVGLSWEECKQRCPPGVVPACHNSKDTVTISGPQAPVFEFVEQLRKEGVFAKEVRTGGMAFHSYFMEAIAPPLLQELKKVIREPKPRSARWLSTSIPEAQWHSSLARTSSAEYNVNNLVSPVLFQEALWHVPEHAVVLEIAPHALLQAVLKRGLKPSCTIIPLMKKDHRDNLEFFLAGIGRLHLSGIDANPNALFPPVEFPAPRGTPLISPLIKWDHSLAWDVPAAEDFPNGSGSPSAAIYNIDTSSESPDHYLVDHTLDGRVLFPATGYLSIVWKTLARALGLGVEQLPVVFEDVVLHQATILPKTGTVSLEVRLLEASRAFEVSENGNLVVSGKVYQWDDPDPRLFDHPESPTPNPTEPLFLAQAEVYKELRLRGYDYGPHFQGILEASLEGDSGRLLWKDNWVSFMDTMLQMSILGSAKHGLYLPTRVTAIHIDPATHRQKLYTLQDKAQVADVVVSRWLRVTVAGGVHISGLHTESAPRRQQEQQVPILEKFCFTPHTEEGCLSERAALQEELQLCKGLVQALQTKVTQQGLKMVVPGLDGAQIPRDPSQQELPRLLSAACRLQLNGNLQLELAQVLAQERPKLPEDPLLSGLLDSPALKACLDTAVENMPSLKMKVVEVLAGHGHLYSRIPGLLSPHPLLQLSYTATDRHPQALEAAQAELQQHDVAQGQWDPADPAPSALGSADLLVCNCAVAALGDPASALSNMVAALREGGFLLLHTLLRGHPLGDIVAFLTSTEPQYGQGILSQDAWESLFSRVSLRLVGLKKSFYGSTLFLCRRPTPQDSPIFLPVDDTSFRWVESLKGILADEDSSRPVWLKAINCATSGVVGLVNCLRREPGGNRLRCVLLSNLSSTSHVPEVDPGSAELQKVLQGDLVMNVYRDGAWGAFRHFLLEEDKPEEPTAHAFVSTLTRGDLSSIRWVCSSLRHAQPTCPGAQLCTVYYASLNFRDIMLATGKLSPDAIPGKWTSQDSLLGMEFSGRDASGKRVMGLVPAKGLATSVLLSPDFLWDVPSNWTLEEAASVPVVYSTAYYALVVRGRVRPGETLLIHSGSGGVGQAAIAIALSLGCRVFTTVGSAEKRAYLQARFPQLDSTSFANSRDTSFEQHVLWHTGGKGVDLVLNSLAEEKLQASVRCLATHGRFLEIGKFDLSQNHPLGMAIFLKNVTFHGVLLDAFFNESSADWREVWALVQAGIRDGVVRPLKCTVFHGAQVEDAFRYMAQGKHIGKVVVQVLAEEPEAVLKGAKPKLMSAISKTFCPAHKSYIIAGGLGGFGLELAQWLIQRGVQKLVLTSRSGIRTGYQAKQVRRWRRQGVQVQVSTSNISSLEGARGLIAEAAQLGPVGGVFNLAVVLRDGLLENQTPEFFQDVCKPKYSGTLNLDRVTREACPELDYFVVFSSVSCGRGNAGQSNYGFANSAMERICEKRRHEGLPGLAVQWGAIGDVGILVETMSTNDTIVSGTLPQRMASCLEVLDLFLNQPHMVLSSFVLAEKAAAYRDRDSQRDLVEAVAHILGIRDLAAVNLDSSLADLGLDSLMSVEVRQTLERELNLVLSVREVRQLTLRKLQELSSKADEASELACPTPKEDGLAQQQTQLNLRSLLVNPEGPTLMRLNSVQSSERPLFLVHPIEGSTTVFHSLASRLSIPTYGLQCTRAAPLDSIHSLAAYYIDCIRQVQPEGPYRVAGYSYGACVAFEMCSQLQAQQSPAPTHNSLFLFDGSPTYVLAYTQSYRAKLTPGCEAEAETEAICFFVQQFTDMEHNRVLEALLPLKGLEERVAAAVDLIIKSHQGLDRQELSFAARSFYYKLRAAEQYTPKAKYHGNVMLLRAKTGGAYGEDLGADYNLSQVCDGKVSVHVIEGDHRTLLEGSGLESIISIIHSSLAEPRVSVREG

Row | Compound | inhibition at 100 µM
1 | CCCCNC(=O)Nc1cc(C(=O)N2CCC(c3ccc(C#N)cc3)CC2)ccc1C [Example 1, 1-butyl-3-[5-[4-(4-cyanophenyl)piperidine-1-carbonyl]-2-methyl-phenyl]urea] | 95.6%
2 | Cc1ccc(C(=O)N2CCC(c3ccc(C#N)cc3)CC2)cc1NC(=O)N1CCOCC1 [Example 2, N-[5-[4-(4-cyanophenyl)piperidine-1-carbonyl]-2-methyl-phenyl]morpholine-4-carboxamide] | 79.7%
3 | Cc1ccc(C(=O)N2CCC(c3ccc(C#N)cc3)CC2)cc1NC(=O)NC(C)C [Example 3, 3-[5-[4-(4-cyanophenyl)piperidine-1-carbonyl]-2-methyl-phenyl]-1-propan-2-yl-urea] | 95.6%
4 | CC(C)NC(=O)Nc1cc(C(=O)N2CCC(c3ccc(C#N)cc3)CC2)ccc1OC(F)(F)F [Example 4, 3-[5-[4-(4-cyanophenyl)piperidine-1-carbonyl]-2-(trifluoromethoxy)phenyl]-1-propan-2-yl-urea] | 86.1%
5 | N#Cc1ccc(C2CCN(C(=O)c3ccc(OC(F)(F)F)c(NC(=O)NCc4ccccc4)c3)CC2)cc1 [Example 5, 3-benzyl-1-[5-[4-(4-cyanophenyl)piperidine-1-carbonyl]-2-(trifluoromethoxy)phenyl]urea] | 78.8%
6 | COc1ccc(C(=O)N2CCC(c3ccc(C#N)cc3)CC2)cc1NC(=O)NC(C)C [Example 6, 1-[5-[4-(4-cyanophenyl)piperidine-1-carbonyl]-2-methoxy-phenyl]-3-propan-2-yl-urea] | 79.6%
7 | Cc1ccc(NC(=O)NCc2ccccc2)cc1C(=O)N1CCC(c2ccc(C#N)cc2)CC1 [Example 7, 3-benzyl-1-[3-[4-(4-cyanophenyl)piperidine-1-carbonyl]-4-methyl-phenyl]urea] | 79.1%
8 | N#Cc1ccc(C2CCN(C(=O)c3ccc(F)c(NC(=O)NCc4ccccc4)c3)CC2)cc1 [Example 8, 3-benzyl-1-[5-[4-(4-cyanophenyl)piperidine-1-carbonyl]-2-fluoro-phenyl]urea] | 82.6%
9 | COc1ccc(C(=O)N2CCC(c3ccc(C#N)cc3)CC2)cc1NC(=O)NCc1ccccc1 [Example 9, 3-benzyl-1-[5-[4-(4-cyanophenyl)piperidine-1-carbonyl]-2-methoxy-phenyl]urea] | 70.4%
10 | Cc1ccc(C(=O)N2CCC(c3ccc(C#N)cc3)CC2)cc1NC(=O)N1CCCC1 [Example 10, N-[5-[4-(4-cyanophenyl)piperidine-1-carbonyl]-2-methyl-phenyl]pyrrolidine-1-carboxamide] | 83.5%
11 | CC(C)NC(=O)Nc1cc(C(=O)N2CCC(c3ccc(C#N)cc3)CC2)ccc1F [Example 11, 3-[5-[4-(4-cyanophenyl)piperidine-1-carbonyl]-2-fluoro-phenyl]-1-propan-2-yl-urea] | 68.4%
12 | Cc1cc(C)c(C(=O)N2CCC(c3ccc(C#N)cc3)CC2)cc1NC(=O)NCc1ccccc1 [Example 12, 3-benzyl-1-[5-[4-(4-cyanophenyl)piperidine-1-carbonyl]-2,4-dimethyl-phenyl]urea] | 84.6%
13 | Cc1cc(C)c(C(=O)N2CCC(c3ccc(C#N)cc3)CC2)cc1NC(=O)NC(C)C [Example 13, 3-[5-[4-(4-cyanophenyl)piperidine-1-carbonyl]-2,4-dimethyl-phenyl]-1-propan-2-yl-urea] | 84.8%

Other lines, results leading:

Row | inhibition at 100 µM | Compound
14 | 90.1% | N#Cc1ccc(C2CCN(C(=O)c3cccc(NC(=O)NCc4ccccc4)c3)CC2)cc1 [Example 14, 1-benzyl-3-[3-[4-(4-cyanophenyl)piperidine-1-carbonyl]phenyl]urea]
15 | 91.3% | Cc1ccc(C(=O)N2CCC(c3ccc(C#N)cc3)CC2)cc1NC(=O)NC1CCCC1 [Example 15, 1-[5-[4-(4-cyanophenyl)piperidine-1-carbonyl]-2-methyl-phenyl]-3-cyclopentyl-urea]
16 | 98.3% | Cc1ccc(C(=O)N2CCC(c3ccc(C#N)cc3)CC2)cc1NC(=O)NCCc1ccccc1 [Example 16, 1-[5-[4-(4-cyanophenyl)piperidine-1-carbonyl]-2-methyl-phenyl]-3-phenethyl-urea]
17 | 90.1% | Cc1ccc(C(=O)N2CCC(c3ccc(C#N)cc3)CC2)cc1NC(=O)NCC1CCOCC1 [Example 17, 1-[5-[4-(4-cyanophenyl)piperidine-1-carbonyl]-2-methyl-phenyl]-3-(oxan-4-ylmethyl)urea]
18 | 75.9% | CNC(=O)Nc1ccc(C)c(C(=O)N2CCC(c3ccc(C#N)cc3)CC2)c1 [Example 18, 3-[3-[4-(4-cyanophenyl)piperidine-1-carbonyl]-4-methyl-phenyl]-1-methyl-urea]
19 | 79.9% | CCNC(=O)Nc1ccc(C)c(C(=O)N2CCC(c3ccc(C#N)cc3)CC2)c1 [Example 19, 3-[3-[4-(4-cyanophenyl)piperidine-1-carbonyl]-4-methyl-phenyl]-1-ethyl-urea]
20 | 79.2% | CCCCNC(=O)Nc1ccc(C)c(C(=O)N2CCC(c3ccc(C#N)cc3)CC2)c1 [Example 20, 1-butyl-3-[3-[4-(4-cyanophenyl)piperidine-1-carbonyl]-4-methyl-phenyl]urea]
21 | 78.8% | Cc1ccc(NC(=O)NC2CCCC2)cc1C(=O)N1CCC(c2ccc(C#N)cc2)CC1 [Example 21, 1-[3-[4-(4-cyanophenyl)piperidine-1-carbonyl]-4-methyl-phenyl]-3-cyclopentyl-urea]
22 | 86.8% | CC(C)NC(=O)Nc1cc(C(=O)N2CCC(c3ccc(C#N)cc3)CC2)ccc1C#N [Example 22, 3-[2-cyano-5-[4-(4-cyanophenyl)piperidine-1-carbonyl]phenyl]-1-propan-2-yl-urea]
23 | 77% | Cc1ccc(NC(=O)NCc2ccccc2F)cc1C(=O)N1CCC(c2ccc(C#N)cc2)CC1 [Example 23, 1-[3-[4-(4-cyanophenyl)piperidine-1-carbonyl]-4-methyl-phenyl]-3-[(2-fluorophenyl)methyl]urea]
24 | 78.1% | Cc1ccc(NC(=O)N(C)Cc2ccccc2)cc1C(=O)N1CCC(c2ccc(C#N)cc2)CC1 [Example 24, 1-benzyl-3-[3-[4-(4-cyanophenyl)piperidine-1-carbonyl]-4-methyl-phenyl]-1-methyl-urea]
25 | 79.7% | Cc1ccc(NC(=O)NCc2cccnc2)cc1C(=O)N1CCC(c2ccc(C#N)cc2)CC1 [Example 25, 1-[3-[4-(4-cyanophenyl)piperidine-1-carbonyl]-4-methyl-phenyl]-3-(pyridin-3-ylmethyl)urea]
26 | 82.9% | Cc1ccc(NC(=O)NCCc2ccccc2)cc1C(=O)N1CCC(c2ccc(C#N)cc2)CC1 [Example 26, 1-[3-[4-(4-cyanophenyl)piperidine-1-carbonyl]-4-methyl-phenyl]-3-phenethyl-urea]
27 | 80.7% | Cc1ccc(NC(=O)NCC2CCOCC2)cc1C(=O)N1CCC(c2ccc(C#N)cc2)CC1 [Example 27, 1-[3-[4-(4-cyanophenyl)piperidine-1-carbonyl]-4-methyl-phenyl]-3-(oxan-4-ylmethyl)urea]
28 | 83.1% | Cc1ccc(NC(=O)N2CCOCC2)cc1C(=O)N1CCC(c2ccc(C#N)cc2)CC1 [Example 28, N-[3-[4-(4-cyanophenyl)piperidine-1-carbonyl]-4-methyl-phenyl]morpholine-4-carboxamide]
29 | 79.6% | Cc1ccc(NC(=O)N2CCCC2)cc1C(=O)N1CCC(c2ccc(C#N)cc2)CC1 [Example 29, N-[3-[4-(4-cyanophenyl)piperidine-1-carbonyl]-4-methyl-phenyl]pyrrolidine-1-carboxamide]
30 | 83.3% | Cc1ccc(C(=O)N2CCC(c3ccc(C#N)cc3)CC2)cc1NC(=O)NC(C)(C)C [Example 31, 1-[5-[4-(4-cyanophenyl)piperidine-1-carbonyl]-2-methyl-phenyl]-3-tert-butyl-urea]
31 | 95.5% | Cc1ccc(C(=O)N2CCC(c3ccc(C#N)cc3)CC2)cc1NC(=O)NCc1ccccc1 [Example 32, 3-benzyl-1-[5-[4-(4-cyanophenyl)piperidine-1-carbonyl]-2-methyl-phenyl]urea]

Same assay, conditions: FAS enzyme assay, IC50 from fitted sigmoid curves

Row | Compound | IC50, inhibition of human Fatty Acid Synthase
32 | CS(=O)(=O)c1ccc(C(=O)N2CCC(c3ccc(C#N)cc3)CC2)cc1NC(=O)NCc1ccccc1 [3-benzyl-1-[5-[4-(4-cyanophenyl)piperidine-1-carbonyl]-2-methylsulfonylphenyl]urea] | do not have IC50s in the range of about 0.001 μM to about 30 μM
33 | CCOC(=O)[C@H](CO)NC(=O)Nc1cc(C(=O)N2CCC(c3ccc(C#N)cc3)CC2)ccc1C [Ethyl (2S)-2-[[5-[4-(4-cyanophenyl)piperidine-1-carbonyl]-2-methylphenyl]carbamoylamino]-3-hydroxypropanoate] | do not have IC50s in the range of about 0.001 μM to about 30 μM
